Test: Stability tests of the crystal forms (high temperature, high humidity, light)
Type: physicochemical
Conditions: general statement; tests at 60° C., 40° C./75% humidity, 5000 Lx described but data not given
Experimental: The crystal forms prepared in Examples 1-3 were tested in the accelerated test under high temperature conditions for stability in accordance with Guidelines for the Stability Test of Pharmaceutical Ingredients and Pharmaceutical Preparations (Chinese Pharmacopoeia 2010 Appendix XIXC).
The crystal forms C, D and E prepared in Examples 1-3 were placed in an open-clean container at 60° C., respectively. The samples were taken for test on day 10, day 20 and day 30, respectively. The results were compared with the initial test result on day 0.
The crystal forms prepared in Examples 1-3 were tested in the accelerated test under high humidity conditions for stability in accordance with Guidelines for the Stability Test of Pharmaceutical Ingredients and Pharmaceutical Preparations (Chinese Pharmacopoeia 2010 Appendix XIXC).
The crystal forms C, D and E prepared in Examples 1-3 were subjected to an accelerated test in a constant temperature and humidity vessel under the conditions of 40° C./75% humidity (open). The samples were taken for test on day 30, day 60 and day 90, respectively. The results were compared with the initial test result on day 0. […]

Question: For `CCCCOc1nc(N)c2[nH]cc(Cc3ccc(CN4CCCC4)cc3)c2n1.O=C(O)/C=C\C(=O)O` [crystal form C, Maleate of 2-butoxy-7-(4-(pyrrolidin-1-ylmethyl)benzyl)-5H-pyrrolo[3,2-d]pyrimidin-4-amine], which “stability of the crystal form” value is on record?
Answer: good stability
